PubChem BioAssay AID2789 (Sanford-Burnham Center for Chemical Genomics, 2010)
Activity calls are given as the source filed them. The rule behind the calls is not given here.

Tested on: NF-kappaB luciferase reporter cells, doxorubicin-induced, luminescence
Experiment: NF-kB luciferase suppression after doxorubicin – cell-based, doxorubicin inducer, set 2, SAR follow-up (AID 2789)

IC50 | Compound
> 25 µM (inactive) | Cn1c(=O)[nH]c(=O)c2c1nc([N+](=O)[O-])n2Cc1ccccc1
> 25 µM (inactive) | C/C(Cl)=C\Cn1c(NCCc2ccccc2)nc2c1c(=O)n(C)c(=O)n2C
> 25 µM (inactive) | COCCn1c(SCCCc2ccccc2)nc2c1c(=O)[nH]c(=O)n2C
> 25 µM (inactive) | Nc1nc2ccccc2n1CCOc1ccc(Cl)cc1
> 25 µM (inactive) | CCCCn1c(SCC(=O)c2ccccc2)nc2c1c(=O)[nH]c(=O)n2C
> 25 µM (inactive) | C/C=C/Cn1c(SCc2ccccc2)nc2c1c(=O)[nH]c(=O)n2C
> 25 µM (inactive) | CCCCn1c(SCC(=O)Nc2nnc(CC)s2)nc2c1c(=O)n(C)c(=O)n2C
> 25 µM (inactive) | C/C=C/Cn1c(SCc2ccc(Cl)cc2)nc2c1c(=O)[nH]c(=O)n2C
> 25 µM (inactive) | CCCn1c(SCC(=O)Nc2nc3c(s2)CCCC3)nc2c1c(=O)n(C)c(=O)n2C
> 25 µM (inactive) | CC(C)n1c(SCCCc2ccccc2)nc2c1c(=O)[nH]c(=O)n2C
> 25 µM (inactive) | CCCn1c(SCCc2ccccc2)nc2c1c(=O)[nH]c(=O)n2C
> 25 µM (inactive) | C=CCn1c(SCCCc2ccccc2)nc2c1c(=O)[nH]c(=O)n2C
> 25 µM (inactive) | C/C=C/Cn1c(SCCCc2ccccc2)nc2c1c(=O)[nH]c(=O)n2C
> 25 µM (inactive) | CCCCCn1c(SCCc2ccccc2)nc2c1c(=O)[nH]c(=O)n2C
> 25 µM (inactive) | CC(C)Sc1nc2c(c(=O)[nH]c(=O)n2C)n1Cc1ccccc1
